Columns and labels:
[1] = tested on: ERKs; assay: Western blot analysis of activated site-specific phosphorylation of ERKs in passively sensitized RBL-2H3 cells after antigen stimulation; type: cell-based, rat; details: ten minutes after antigen stimulation
Procedure: (§1) Rat basophilic leukemia 2H3 (RBL-2H3) cells (JCRB0023 from Health Science Research Resources Bank) were seeded in a 6-well plate or a 60 mm dish (0.5×10^6 cells/ml) and sensitized with the anti-DNP-IgE antibody (1:2000) at 37° C. for 90 minutes, and then washed twice with a glucose/PIPES buffer. After the RBL-2H3 cells were incubated at 37° C. for 15 minutes in the presence of Compound A or DMSO (at a final concentration of 0.1%), DNP-BSA (at a final concentration of 3 ng/ml) was added, and further incubation was performed for 10 minutes. The cells were then washed twice with PBS on ice, the cells were harvested with a scraper in a cell extraction buffer for western blot analysis or kinase assay, and incubated on ice for 15 minutes, and centrifuged (14,500 rpm, 4° C., 15 minutes). The resulting supernatant was recovered.
(§2) Western Blot Analysis: The supernatant of the total protein extracted from the cells was separated by 10% SDS-PAGE. The proteins and phosphorylated proteins were detected by a chemiluminescence technique using an anti-PLCγ-1[pY783] phosphospecific antibody, an anti-PLCγ antibody, an anti-active JNK (pTPpY) antibody, an anti-phospho-MAPK (ERK1/2)(Thr202/[…]) antibody, an anti-phospho-p38MAPK (Thr180/Tyr182) antibody, an anti-p44/42MAP kinase antibody, and an anti-JNK antibody.

[2] = tested on: p38MAPK; assay: Western blot analysis of activated site-specific phosphorylation of p38MAPK in passively sensitized RBL-2H3 cells after antigen stimulation; type: cell-based, rat; details: ten minutes after antigen stimulation
Procedure: as §1, §2

[3] = tested on: PLCγ; assay: Western blot analysis of activated site-specific phosphorylation of PLCγ in passively sensitized RBL-2H3 cells after antigen stimulation; type: cell-based, rat; details: ten minutes after antigen stimulation
Procedure: as §1, §2

[4] = tested on: RBL-2H3 cells; assay: Western blot analysis of protein expression amount in RBL-2H3 cells; type: cell-based, rat; details: treatment with Compound A
Procedure: as §1, §2

[5] = tested on: TNF-α; assay: Increase in the amount of TNF-α in ear tissue of IgE-passively sensitized mouse after antigen (DNFB) stimulation; type: in vivo; details: female BALB/c mice, p.o., eight hours after application of DNFB
Procedure: Female BALB/c mice were passively sensitized systemically by intravenous administration of 0.25 ml of a 20-fold diluted anti-DNP monoclonal antibody. On the following day, skin reactions were induced by applying 10 μl of a 0.15% dinitrofluorobenzene solution (DNFB diluted with a 4:1 mixture of acetone and olive oil) to each side of both ears of mice. Eight hours after the application of DNFB, both ears were cut off and homogenized in 400 μl of PBS using Polytron and then centrifuged (15,000 rpm, 15 minutes, 4° C.). The resulting supernatant was used as a sample. The amount of TNF-α was determined using a commercially available ELISA kit. The amount of proteins in the sample was also determined, and the amount of TNF-α was calculated per mg of protein. A preliminary test was performed in which an auricle sample was taken at certain intervals after the application of the antigen, and a time course of the amount of TNF-α was observed. The drug was orally administered one hour before the application of DNFB.

[6] = tested on: JNK; assay: JNK kinase assay on protein extract of treated RBL-2H3 cells with c-Jun(1-89) as substrate; type: cell-based, rat; details: 10^−5 to 10^−7 mol/l
Procedure: as §1
JNK Kinase Assay: The total protein extracted from the cells (250 μg) was incubated for 12 hours with gentle rocking with GST-c-Jun(1-89) sepharose beads (2 μg) at 4° C. After washing, a kinase buffer was used for replacement. ATP ([…]) was added to start the kinase reaction. After incubation was performed at 30° C. for 30 minutes, 10% SDS-PAGE was used for separation. The phosphorylated GST-c-Jun(1-89) was detected by a chemiluminescence technique using an anti-phospho-c-Jun antibody.

[7] = tested on: JNK (JNK1 and JNK2); assay: Western blot analysis of activated site-specific phosphorylation of JNK in passively sensitized RBL-2H3 cells after antigen stimulation; type: cell-based, rat
Procedure: as §1, §2

[8] = tested on: peritoneal mast cells; assay: Antigen stimulation-induced release of TNF-α from peritoneal mast cells of passively sensitized rat; type: cell-based; details: 10^−9 to 10^−5 mol/l, 60 minutes preincubation, two hours after DNP-BSA
Procedure: Female Wistar rats were intraperitoneally administered 2 ml of an anti-DNP-IgE antibody (diluted 250-fold), and killed by exsanguination after 48 hours. 20 ml of a physiological mast cells medium (MCM) was injected into the abdominal cavity, and the lavage was recovered. The lavage was centrifuged at 50×g for seven minutes at 4° C. and then washed twice with MCM. Cells were suspended in 1 ml of a heparin-free MCM at a concentration of 1.25×10^5 cells/mL, and then CaCl2 was added (at a final concentration of 1 mmol/L). The resulting mixture was incubated with Compound A or DMSO (at a final concentration of 0.1%) at 37° C. for 60 minutes, and then DNP-BSA (at a final concentration of 30 ng/mL) was added, and further incubation was performed for two hours. Thereafter, the supernatant was harvested and stored at −40° C. until the amount of TNF-A was measured. The amount of TNF-α was determined using a commercially available ELISA kit.

| melting point [°C] | Compound | further results |
| --- | --- | --- |
| 136 to 138 | c1ccc(C(OC2CCN(CCCNc3ccc4ncnn4n3)CC2)c2ccccc2)cc1 | – |
| 219 to 220 | Cc1c(C(C)(C)C(=O)O)nc2ccc(NCCCN3CCC(OC(c4ccccc4)c4ccccc4)CC3)nn12 | – |
| 144 to 146 | O=C(O)/C=C/C(=O)O.c1ccc(C(OC2CCN(CCCCCCOc3ccc4nncn4n3)CC2)c2ccccc2)cc1 | – |
| 125 to 127 | CC(C)(C)c1nnc2ccc(OCCCN3CCC(OC(c4ccccc4)c4ccccc4)CC3)nn12 | – |
| 162 | CCOC(=O)C(C)(C)n1nc2ccc(NCCCN3CCC(OC(c4ccccc4)c4ccccc4)CC3)nn2c1=O.Cl | – |
| 162 | CC(C)(C)C(=O)OCOC(=O)C(C)(C)n1nc2ccc(NCCCN3CCC(OC(c4ccccc4)c4ccccc4)CC3)nn2c1=O | – |
| 205 | CCOC(=O)CNC(=O)c1cn2nc(NCCCN3CCC(OC(c4ccccc4)c4ccccc4)CC3)ccc2n1.Cl.Cl | – |
| 115 to 117 | CCOC(=O)C(C)(C)c1cn2nc(NCCCN3CCC(NC(c4ccccc4)c4ccccc4)CC3)ccc2n1 | – |
| 124 to 127 | c1ccc(C(OC2CCN(CCCCCCNc3ccc4nncn4n3)CC2)c2ccccc2)cc1 (hydrate or solvate) | – |
| 129 to 133 | CCOC(=O)c1nnc2ccc(NCCCN3CCC(OC(c4ccccc4)c4ccccc4)CC3)nn12 (hydrate or solvate) | – |
| 102 to 104 | O=C(O)c1nnc2ccc(NCCCN3CCC(OC(c4ccccc4)c4ccccc4)CC3)nn12 (hydrate or solvate) | – |
| 156 to 170 | O=c1[nH]nc2ccc(NCCCN3CCC(OC(c4ccccc4)c4ccccc4)CC3)nn12 (hydrate or solvate) | – |
| 181 to 185 | CC(C)(C(=O)O)n1nc2ccc(NCCCN3CCC(OC(c4ccccc4)c4ccccc4)CC3)nn2c1=O (hydrate or solvate) | – |
| – | CC(C)(C(=O)O)c1cn2nc(NCCCN3CCC(OC(c4ccccc4)c4ccccc4)CC3)ccc2n1.O.O [Compound A, 2-[6-[3-[4-(diphenylmethoxy)piperidino]propylamino]imidazo[1,2-b]pyridazin-2-yl]-2-methylpropionic acid dihydrate] | influence on activated site-specific phosphorylation of ERKs [1]: no influence; influence on activated site-specific phosphorylation of p38MAPK [2]: no influence; influence on activated site-specific phosphorylation of PLCγ [3]: no influence; expression amount of any other protein [4]: not influenced; effect on the increase in the amount of TNF-α in ear tissue ([5]; 0.1 to 10 mg/kg, one hour before DNFB): inhibited the increase in the amount of TNF-α in a dose-dependent manner; dose with significant inhibition of the increase in the amount of TNF-α ([5]; p<0.01 vs. control (Dunnett)): ≥ 1 mg/kg; JNK activity of protein extract on c-Jun(1-89) substrate [6]: inhibited depending on the concentration; effect on specific phosphorylation of JNK (JNK1 and JNK2) ([7]; 10^−5 to 10^−7 mol/l, ten minutes after antigen stimulation): inhibited the specific phosphorylation of JNK (JNK1 and JNK2) in a dose-dependent manner; selectivity for JNK activation among cascades activated depending on IgE ([7]; versus PLCγ, ERKs, p38MAPK in RBL-2H3 cells): selectively inhibits the activation of JNK; effect on antigen stimulation-induced release of TNF-α [8]: inhibited the antigen stimulation-induced release of TNF-α in a concentration-dependent manner |

| Compound | melting point [°C] | further results |
| --- | --- | --- |
| CC(C)(C(=O)O)c1cn2nc(NCCCN3CCC(OC(c4ccccc4)c4ccccc4)CC3)ccc2n1 | 205 to 206 | – |
| CC(C)(C(=O)O)c1cn2nc(NCCCN3CCC(OC(c4ccccc4)c4ccccc4)CC3)ccc2n1.O.O (hydrate or solvate) [Compound A, 2-[6-[3-[4-(diphenylmethoxy)piperidino]propylamino]imidazo[1,2-b]pyridazin-2-yl]-2-methylpropionic acid dihydrate] | 203 to 205 | – |

Reference: patent US20040254189A1, “Jnk inhibitors” (priority 2001, published 2004)
